In patent US10106534B2 (CELGENE QUANTICEL RESEARCH, INC., priority 2014, dated 2018):

Tests used:
JMJD2C = JMJD2C (Homo sapiens (Human), UniProt Q9H3R0); experiment: In vitro enzyme inhibition assay for JMJD2C activity (TR-FRET); type: biochemical
Method in brief: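 Baculovirus JMJD2C (AA 2-372), 0.3 nM, with 300 nM biotin-H3K9me3 peptide and 2 μM α-ketoglutarate in HEPES pH 7.3 containing Fe(II) and ascorbate, 30 min at room temperature, 11-point dilutions. H3K9me2 product by TR-FRET (Eu-antibody/streptavidin-APC, 665/615 ratio); IC50 fitted.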

JMJD3 = JMJD3 (Homo sapiens, UniProt O15054); experiment: In vitro enzyme inhibition assay for JMJD3 activity (TR-FRET); type: biochemical
Procedure: This assay determines the ability of a test compound to inhibit JMJD3 demethylase activity.
The enzymatic assay of JMJD3 activity is based upon Time Resolved-Fluorescence Resonance Energy Transfer (TR-FRET) detection. […] Reaction product was determined quantitatively by TR-FRET after the addition of detection reagent Phycolink Streptavidin-allophycocyanin (Prozyme) and Europium-anti-di-methylated histone H3 lysine 27 (H3K27me2) antibody (PerkinElmer) in the presence of 5 mM EDTA in LANCE detection buffer (PerkinElmer) at a final concentration of 50 nM and 1 nM, respectively.
The reaction mixture was incubated at room temperature for 30 minutes, and terminated by the addition of 6 μL of 5 mM EDTA in LANCE detection buffer containing 100 nM Phycolink Streptavidin-allophycocyanin and 2 nM Europium-anti-H3K27me2 antibody.

[1] = test system: KYSE-150 esophageal carcinoma cell line; experiment: In vitro cell-based assay: cellular proliferation via BrdU incorporation (ELISA); design: species or system human; details: Homo sapiens, KYSE-150, 168 hours compound incubation
Method in brief: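 KYSE-150 cells (JMJD2C-amplified; SMAD4 and TP53 mutant), 2,000/well, were treated after overnight attachment with an 11-point series (100 μM to 2 nM) for 168 h. Proliferation was read by BrdU ELISA (2 h labelling, anti-BrdU-peroxidase, TMB, 450 nm) and IC50 fitted.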

Sequence of JMJD2C (Q9H3R0 2-372): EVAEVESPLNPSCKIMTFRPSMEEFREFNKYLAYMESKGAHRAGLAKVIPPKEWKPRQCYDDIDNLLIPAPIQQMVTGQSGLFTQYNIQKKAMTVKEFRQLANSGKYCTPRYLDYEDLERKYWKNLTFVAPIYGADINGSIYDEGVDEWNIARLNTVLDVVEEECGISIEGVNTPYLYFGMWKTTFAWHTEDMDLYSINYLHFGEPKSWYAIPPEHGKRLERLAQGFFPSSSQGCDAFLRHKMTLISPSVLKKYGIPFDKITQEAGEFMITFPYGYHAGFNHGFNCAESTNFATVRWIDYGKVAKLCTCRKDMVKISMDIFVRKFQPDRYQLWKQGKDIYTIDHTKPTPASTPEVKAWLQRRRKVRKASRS

Row | IC50 (JMJD2C) [nM] | fold more potent for JMJD3 than the R-enantiomer (JMJD3; S-enantiomer vs R-enantiomer) [fold] | IC50 [1] [nM] | Molecule | IC50 (JMJD3) [nM]
1 | 1000 to 10000 |  |  | Cc1cccc(-c2ccc3c(c2)OCC[C@@H]3CNc2cnccc2C(=O)O)c1 [Example 29, 3-({[(4S)-7-(3-methylphenyl)-3,4-dihydro-2H-1-benzopyran-4-yl]methyl}amino)pyridine-4-carboxylic acid] | 100 to 1000
2 |  | > 100 |  | O=C(O)c1ccncc1NC[C@H]1CCOc2cc(-c3ccccc3)ccc21 [Example 83 of U.S. Pat. No. 8,952,151, 3-({[(4S)-7-phenyl-3,4-dihydro-2H-1-benzopyran-4-yl]methyl}amino)pyridine-4-carboxylic acid, reference compound] | 
3 | 100 to 1000 |  | ≤ 100 | CN(c1ccc(N2CCC2)cc1)c1ccc2c(c1)CCC[C@H]2CNc1cnccc1C(=O)O [Example 180, 3-({[(1R)-6-{[4-(azetidin-1-yl)phenyl](methyl)amino}-1,2,3,4-tetrahydronaphthalen-1-yl]methyl}amino)pyridine-4-carboxylic acid] | 
4 | 100 to 1000 |  | ≤ 100 | CCOc1ccc(N(C)c2ccc3c(c2)OCC[C@H]3CNc2cnccc2C(=O)O)cc1 [Example 186, 3-({[(4R)-7-[(4-ethoxyphenyl)(methyl)amino]-3,4-dihydro-2H-1-benzopyran-4-yl]methyl}amino)pyridine-4-carboxylic acid] | 
5 | 100 to 1000 |  | ≤ 100 | CN(c1ccc(-n2cccn2)cc1)c1ccc2c(c1)CCC[C@H]2CNc1cnccc1C(=O)O [Example 188, 3-({[(1R)-6-{methyl[4-(1H-pyrazol-1-yl)phenyl]amino}-1,2,3,4-tetrahydronaphthalen-1-yl]methyl}amino)pyridine-4-carboxylic acid] | 
6 | 100 to 1000 |  | 100 to 1000 | CN(c1ccc(-n2cccn2)cc1)c1ccc2c(c1)OCC[C@H]2CNc1cnccc1C(=O)O [Example 189, 3-({[(4R)-7-{methyl[4-(1H-pyrazol-1-yl)phenyl]amino}-3,4-dihydro-2H-1-benzopyran-4-yl]methyl}amino)pyridine-4-carboxylic acid] | 
7 | 100 to 1000 |  | ≤ 100 | CN(c1ccc(N2CC(F)(F)C2)cc1)c1ccc2c(c1)OCC[C@H]2CNc1cnccc1C(=O)O [Example 196, 3-({[(4R)-7-{[4-(3,3-difluoroazetidin-1-yl)phenyl](methyl)amino}-3,4-dihydro-2H-1-benzopyran-4-yl]methyl}amino)pyridine-4-carboxylic acid] | 
8 | 100 to 1000 |  | ≤ 100 | COCCOc1ccc(N(C)c2ccc3c(c2)CCC[C@H]3CNc2cnccc2C(=O)O)cc1 [Example 197, 3-({[(1R)-6-{[4-(2-methoxyethoxy)phenyl](methyl)amino}-1,2,3,4-tetrahydronaphthalen-1-yl]methyl}amino)pyridine-4-carboxylic acid] | 
9 | 100 to 1000 |  | ≤ 100 | CC(c1ccccc1)c1ccc2c(c1)OCC[C@H]2CNc1cnccc1C(=O)O (stereo partly drawn) [Example 198, 3-({[(4R)-7-(1-phenylethyl)-3,4-dihydro-2H-1-benzopyran-4-yl]methyl}amino)pyridine-4-carboxylic acid] | 
10 | 100 to 1000 |  | ≤ 100 | CC(C)c1ccc(N(C)c2ccc3c(c2)OCC[C@H]3CNc2cnccc2C(=O)O)nc1 [Example 199, 3-({[(4R)-7-{methyl[5-(propan-2-yl)pyridin-2-yl]amino}-3,4-dihydro-2H-1-benzopyran-4-yl]methyl}amino)pyridine-4-carboxylic acid] | 
11 | 100 to 1000 |  | 100 to 1000 | CN(c1ccc(N2CC(O)C2)cc1)c1ccc2c(c1)CCC[C@H]2CNc1cnccc1C(=O)O [Example 200, 3-({[(1R)-6-{[4-(3-hydroxyazetidin-1-yl)phenyl](methyl)amino}-1,2,3,4-tetrahydronaphthalen-1-yl]methyl}amino)pyridine-4-carboxylic acid] | 
12 | 100 to 1000 |  | ≤ 100 | CN(c1ccc(C2=CCOCC2)cc1)c1ccc2c(c1)OCC[C@H]2CNc1cnccc1C(=O)O [Example 201, 3-({[(4R)-7-{[4-(3,6-dihydro-2H-pyran-4-yl)phenyl](methyl)amino}-3,4-dihydro-2H-1-benzopyran-4-yl]methyl}amino)pyridine-4-carboxylic acid] | 
13 | 100 to 1000 |  | 100 to 1000 | O=C(O)c1ccncc1NC[C@@H]1CCOc2cc(C3(c4ccccc4)CC3)ccc21 [Example 203, 3-({[(4R)-7-(1-phenylcyclopropyl)-3,4-dihydro-2H-1-benzopyran-4-yl]methyl}amino)pyridine-4-carboxylic acid] | 
14 | ≤ 100 |  | > 10000 | CN1CC=C(c2ccc(N(C)c3ccc4c(c3)OCC[C@H]4CNc3cnccc3C(=O)O)cc2)CC1 [Example 204, 3-({[(4R)-7-{methyl[4-(1-methyl-1,2,3,6-tetrahydropyridin-4-yl)phenyl]amino}-3,4-dihydro-2H-1-benzopyran-4-yl]methyl}amino)pyridine-4-carboxylic acid] | 
15 | ≤ 100 |  | > 10000 | CN1CCC(c2ccc(N(C)c3ccc4c(c3)OCC[C@H]4CNc3cnccc3C(=O)O)cc2)CC1 [Example 205, 3-({[(4R)-7-{methyl[4-(1-methylpiperidin-4-yl)phenyl]amino}-3,4-dihydro-2H-1-benzopyran-4-yl]methyl}amino)pyridine-4-carboxylic acid] | 
16 | 100 to 1000 |  | ≤ 100 | Cc1ccc(N(C)c2ccc3c(c2)OCC[C@H]3CNc2cnccc2C(=O)O)cc1C [Example 206, 3-({[(4R)-7-[(3,4-dimethylphenyl)(methyl)amino]-3,4-dihydro-2H-1-benzopyran-4-yl]methyl}amino)pyridine-4-carboxylic acid] | 
17 | 100 to 1000 |  | 100 to 1000 | CN(c1ccc(CCO)cc1)c1ccc2c(c1)OCC[C@H]2CNc1cnccc1C(=O)O [Example 207, 3-({[(4R)-7-{[4-(2-hydroxyethyl)phenyl](methyl)amino}-3,4-dihydro-2H-1-benzopyran-4-yl]methyl}amino)pyridine-4-carboxylic acid] | 
18 | 1000 to 10000 |  | ≤ 100 | CCCc1ccc(N(C)c2ccc3c(c2)OCC[C@H]3CNc2cnccc2C(=O)O)cc1 [Example 208, 3-({[(4R)-7-[methyl(4-propylphenyl)amino]-3,4-dihydro-2H-1-benzopyran-4-yl]methyl}amino)pyridine-4-carboxylic acid] | 
19 | 100 to 1000 |  | ≤ 100 | CC(C)Oc1ccc(N(C)c2ccc3c(c2)OCC[C@H]3CNc2cnccc2C(=O)O)cc1 [Example 210, 3-({[(4R)-7-{methyl[4-(propan-2-yloxy)phenyl]amino}-3,4-dihydro-2H-1-benzopyran-4-yl]methyl}amino)pyridine-4-carboxylic acid] | 
20 | 100 to 1000 |  | ≤ 100 | CN(c1ccc(OCC2CC2)cc1)c1ccc2c(c1)OCC[C@H]2CNc1cnccc1C(=O)O [Example 211, 3-({[(4R)-7-{[4-(cyclopropylmethoxy)phenyl](methyl)amino}-3,4-dihydro-2H-1-benzopyran-4-yl]methyl}amino)pyridine-4-carboxylic acid] | 
21 | 100 to 1000 |  | ≤ 100 | CCCOc1ccc(N(C)c2ccc3c(c2)OCC[C@H]3CNc2cnccc2C(=O)O)cc1 [Example 212, 3-({[(4R)-7-[methyl(4-propoxyphenyl)amino]-3,4-dihydro-2H-1-benzopyran-4-yl]methyl}amino)pyridine-4-carboxylic acid] | 
22 | 100 to 1000 |  | ≤ 100 | CN(c1ccc(OC2CC2)cc1)c1ccc2c(c1)OCC[C@H]2CNc1cnccc1C(=O)O [Example 213, 3-({[(4R)-7-[(4-cyclopropoxyphenyl)(methyl)amino]-3,4-dihydro-2H-1-benzopyran-4-yl]methyl}amino)pyridine-4-carboxylic acid] | 
23 | 100 to 1000 |  | ≤ 100 | CN(c1ccc(OCC(F)(F)F)cc1)c1ccc2c(c1)OCC[C@H]2CNc1cnccc1C(=O)O [Example 214, 3-({[(4R)-7-{methyl[4-(2,2,2-trifluoroethoxy)phenyl]amino}-3,4-dihydro-2H-1-benzopyran-4-yl]methyl}amino)pyridine-4-carboxylic acid] | 

Row | Molecule | IC50 (JMJD2C) [nM] | fold more potent for JMJD3 than the R-enantiomer (JMJD3; S-enantiomer vs R-enantiomer) [fold] | IC50 [1] [nM] | IC50 (JMJD3) [nM]
24 | 3-({[(1R)-6-[benzyl(methyl)amino]-1,2,3,4-tetrahydronaphthalen-1-yl]methyl}amino)pyridine-4-carboxylic acid [Example 130] | 100 to 1000 |  |  | 1000 to 10000
25 | CN(c1ccccc1)c1ccc2c(c1)CCCC2CNc1cnccc1C(=O)O (stereo in doubt) [Example 2, 3-({[(1S)-6-[methyl(phenyl)amino]-1,2,3,4-tetrahydronaphthalen-1-yl]methyl}amino)pyridine-4-carboxylic acid] | 100 to 1000 |  |  | 1000 to 10000
26 | CN(c1ccccc1)c1ccc2c(c1)CCC[C@@H]2CNc1cnccc1C(=O)O [Example 1, 3-({[(1S)-6-[methyl(phenyl)amino]-1,2,3,4-tetrahydronaphthalen-1-yl]methyl}amino)pyridine-4-carboxylic acid] | 1000 to 10000 |  |  | 1000 to 10000
